Test results as given in EP0876161B1, “CONTRAST MEDIA” (priority 1996, dated 1997).

Legend:
[1] = Osmolality of the formulated complex solution; format: physicochemical
mice = test: Maximum tolerated dose (MTD) in mice of formulated complex solution; format: in vivo; conditions: complex given as the formulated solution
[2] = Osmolality determined in water, compared to the EGTA complex; format: physicochemical; conditions: concentration 41 mM

Na4[(W3SO3)2(MeO-PDTA)3] [Na4[(W3SO3)2(MeO-PDTA)3] . 7H2O]
osmolality ([1]; 140mM solution, pH 6.5): 563 mmol/kg

Na4[(W3S3O)2(EGTA)3] [Na4[(W3S3O)2(EGTA)3] .6H2O]
osmolality ([1]; 121 mM solution, pH 6.95): 517 mmol/kg | maximum tolerated dose (MTD) (mice): ~3.95 mmoles complex/kg

Na4[(W3SO3)2(EGTA)3] [Na4[(W3SO3)2(EGTA)3].10H2O]
osmolality ([1]; 168 mM solution, pH 6.65): 685 mmol/kg | osmolality [2]: 199 mmol/kg | maximum tolerated dose (MTD) (mice): ~7.75 mmoles complex/kg

Na4[(W3SO3)2(PDTA)3] [Na4[(W3SO3)2(PDTA)3] 11H2O]
osmolality ([1]; 79mM solution, pH 6.6): 311 mmol/kg | maximum tolerated dose (MTD) (mice): > 6.5 mmoles complex/kg

(NMG)4[(W3SO3)2(HO-PDTA)3]
osmolality ([1]; 153mM solution, pH 6.98): 499 mmol/kg | maximum tolerated dose (MTD) (mice): ~2.17 mmoles complex/kg

Na4[(W3SO3)2(OBETA)3] [Na4[(W3SO3)2(OBETA)3].10H2O]
osmolality ([1]; 107 mM solution, pH 7.03): 498 mmol/kg | maximum tolerated dose (MTD) (mice): -4.35 mmoles complex/kg

Na4[(W3SO3)2(BDTA)3] [Na4[(W3SO3)2(BDTA)3].12H2O]
osmolality ([1]; 120mM solution, pH 7.4): 459 mmol/kg | maximum tolerated dose (MTD) (mice): ~ 2.55 mmoles complex/kg
